Numbering of substitutions follows the chain as printed.
Assays:
[1] = target: T1, Islet amyloid polypeptide (IAPP, or amylin), wild-type (Homo sapiens, UniProt P10997); experiment: ThT fluorescence amyloid assembly assay; type: biochemical; conditions: 10 μM IAPP, 50 μM compound, 160 mM ammonium acetate pH 7.4, 1% v/v DMSO, 30 °C, quiescent; mainly inhibits primary nucleation
T1 construct: SEC-purified monomer; N-terminally biotinylated at Lys1 (PEG4) for SPR only; cut from pro-islet amyloid polypeptide
T1 sequence (P10997 34-70): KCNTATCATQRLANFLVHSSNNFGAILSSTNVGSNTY

[2] = target: T1, Islet amyloid polypeptide (IAPP, or amylin), wild-type; experiment: T1ρ and WaterLOGSY ligand-observed NMR; type: binding; conditions: IAPP monomer; 20 μM IAPP, 100 μM compound, 25 mM sodium phosphate pH 6.8, 1% v/v DMSO-d6, 5 °C
[3] = target: T1, Islet amyloid polypeptide (IAPP, or amylin), wild-type; experiment: SPR, biotinylated IAPP on streptavidin chip; type: binding
[4] = target: T2, Islet amyloid polypeptide (IAPP, or amylin), wild-type (Homo sapiens, UniProt P10997, S53G); experiment: ThT fluorescence amyloid assembly assay; type: biochemical; conditions: 160 mM ammonium acetate pH 7.4, 1% v/v DMSO, 30 °C; inhibition of amyloid formation
T2 construct: SEC-purified monomer; N-terminally biotinylated at Lys1 (PEG4) for SPR only; cut from pro-islet amyloid polypeptide
T2 sequence (P10997 34-70 S53G): T1 sequence (P10997 34-70) with S20G

Compound | fold-change in half-time of amyloid formation at 50 μM [1] | ligand binding (observed by NMR) [2] | Kd [3] | ThT fluorescence amyloid assembly assay [4]
COc1cc2nc(N3CCN(C(=O)C4COc5ccccc5O4)CC3)nc(N)c2cc1OC (centres unmarked) [doxazosin] | 1.61 ± 0.29 fold |  |  | 
Cc1ccc([C@@H]2O[C@H](CO)[C@@H](O)[C@H](O)[C@H]2O)cc1Cc1ccc(-c2ccc(F)cc2)s1 [canagliflozin] | 1.55 ± 0.22 fold | further evidence that canagliflozin binds IAPP monomers with strong changes in all protons | > 150 µM | only canagliflozin was able to inhibit amyloid formation by the familial S20G variant of IAPP

— paper PMC11987024, “Kinetic Steering of Amyloid Formation and Polymorphism by Canagliflozin, a Type-2 Diabetes Drug” (Journal of the American Chemical Society, 2025)
